Measured values: patent publication US4378358A, “Benzothiazinopyrazoles having pharmacological activity” (Mediolanum Farmaceutici s.r.l., priority 1980, dated 1983)
Read-outs that look alike come from different tables or passages of the source.

Experiments:
[1] = system: Mouse
[2] = system: rats; assay: in vivo; conditions: 5 days, rats, per os
Source text: (§1) Five days subacute toxicity in rats per os
(§2) Animals: 5 female rats for each group, average body weight: 150g.

[3] = in vivo; conditions: rat, in vivo, po, read-out: % of dead animals
Source text: as §1, §2

[4] = system: rats; assay type: in vivo, rat; conditions: for Average number of lesions per animal / Gastrolesive effect, relative potency to naproxen / Gastrolesive effect, relative potency to piroxicam: single oral administration, male rats
Procedure: The test was modified by increasing the fast period to 70 hours and giving the total dose of substance in one single oral administration.
Animals: 10 male rats for each group, average body weight: 150g.

[5] = system: carrageenin paw edema; assay: Antiinflammatory activity according to Winter et al., carrageenin paw edema, modified; assay type: in vivo, rat
Procedure: Antiinflammatory activity according to WINTER et al., Proc. Soc. Exp. Biol. Med.; 111, 544; 1962.
The test was modified in that the injection of carrageenin and the administration of the compound by gastric gavage were carried out simultaneously and the paw edema was measured at the plethysmograph after 4 hours.
Animals: 6 female rats for each group, average body weight: 150g

[6] = system: Rat; assay: in vivo; assay type: in vivo
[7] = in vivo; assay type: in vivo; conditions: rat, in vivo, po; read-out: LD 50 (Litchfield and Wilcoxon)
[8] = system: pyresis; assay: Antipyretic activity according to Burn et al.; assay type: in vivo, rat; conditions: for Reduction of the pyresis at hour 4: female rats
Source text: Animals: 6 female rats for each group, average body weight 200 g.

[9] = in vivo; conditions: mouse, po
[10] = system: phenylquinone writhes; assay: Analgesic activity according to Hendershot et al., phenylquinone writhes, modified; assay type: in vivo, mouse
Procedure: Analgesic activity according to HENDERSHOT et al., Jour. Pharm.
The test was modified by numbering the writhes only along the time interval from 5 to 15 minutes since the injection of phenylquinone. The injection was made 2 hours after the oral administration of the compound to be tested.
Animals: 8 female mice for each group, average body weight: 25g

[11] = 100 mg/kg (maximum tested dose)
[12] = Rattus norvegicus, po, 4 h, 50 mg/kg per os, female rats, read-out: % inhibition of the edema after 4 hours
[13] = Rattus norvegicus, po, 4 h, 100 mg/kg per os, female rats, read-out: % inhibition of the edema after 4 hours
[14] = 50 mg/g (so in the source) per os
[15] = 100 mg/g (so in the source) per os
[16] = Mus musculus, 50 mg/kg oral, 2 h before phenylquinone, 5-15 min, female mice
[17] = Mus musculus, 100 mg/kg oral, 2 h before phenylquinone, 5-15 min, female mice

Compound | Subacute toxicity, relative ratio to naproxen [2] | Subacute toxicity, relative ratio to piroxicam [2] | Average number of lesions per animal [4, 11] | Gastrolesive effect, relative potency to naproxen [4] | Gastrolesive effect, relative potency to piroxicam [4] | Antiinflammatory relative potency to naproxen ([5]; 50 mg/kg per os) | Antiinflammatory relative potency to piroxicam ([5]; 50 mg/kg per os) | Antiinflammatory relative potency to naproxen ([5]; 100 mg/kg per os) | Antiinflammatory relative potency to piroxicam ([5]; 100 mg/kg per os) | inhibition in vivo at 50 mg/kg [5, 12] | inhibition in vivo at 100 mg/kg [5, 13] | LD50 [7] | Antipyretic relative potency to naproxen [8, 14] | Antipyretic relative potency to piroxicam [8, 14] | Reduction of the pyresis at hour 4 [8, 14] | Antipyretic relative potency to naproxen [8, 15] | Antipyretic relative potency to piroxicam [8, 15] | Reduction of the pyresis at hour 4 [8, 15] | LD50 [9] | Analgesic relative potency to naproxen ([10]; 50 mg/kg oral) | other results
CCN(CC)CCNC(=O)c1nn(-c2ccccc2)c2c1N(C)S(=O)(=O)c1ccccc1-2 [Compound I-1, 2-methyl-5-phenyl-1,2-benzothiazino[3,4-d]pyrazole-3-yl-carboxylic acid, 2-(N,N-diethylamino)ethylamide,S,S-dioxide] | 4 | 10 | 0 | > 20 | 100 | 0.5 | 0.2 | 0.8 | 0.4 | 10% | 16% | 2700 mg/kg | 0.8 | 1.0 | 0.86 °C | 1.3 | 1.6 | 1.44 °C | 2850 mg/kg | 1.3 | LD 50, relative ratio to naproxen ([1]; per os): 2.3; LD 50, relative ratio to piroxicam ([1]; per os): 7.9; mortality at 120 h ([3]; 200 mg/kg/day): 0%; LD 50, relative ratio to piroxicam ([6]; in vivo): 10.0; Analgesic relative potency to piroxicam ([10]; 50 mg/kg oral): 0.9; Analgesic relative potency to naproxen ([10]; 100 mg/kg oral): 2.2; Analgesic relative potency to piroxicam ([10]; 100 mg/kg oral): 1.6; inhibition in vivo at 50 mg/kg [10, 16]: 43%; inhibition in vivo at 100 mg/kg [10, 17]: 72%
CN1c2c(C(=O)NCCCNC3CCCCC3)nn(-c3cccc(F)c3)c2-c2ccccc2S1(=O)=O [Compound I-23] | 4 | 10 | 0 | > 20 | 100 | 1.3 | 0.6 | 1.8 | 0.8 | 27% | 38% | 1200 mg/kg | 1.1 | 1.3 | 1.20 °C | 1.3 | 1.6 | 1.42 °C | 720 mg/kg | 1.6 | LD 50, relative ratio to piroxicam ([1]; in vivo): 2.0; mortality at 120 h ([3]; 200 mg/kg/day): 0%; LD 50, relative ratio to naproxen ([6]; per os): 2.2; LD 50, relative ratio to piroxicam ([6]; per os): 4.4; Analgesic relative potency to piroxicam ([10]; 50 mg/kg oral): 1.2; Analgesic relative potency to naproxen ([10]; 100 mg/kg oral): 2.4; Analgesic relative potency to piroxicam ([10]; 100 mg/kg oral): 1.7; inhibition in vivo at 50 mg/kg [10, 16]: 54%; inhibition in vivo at 100 mg/kg [10, 17]: 79%
COc1ccc2cc([C@H](C)C(=O)O)ccc2c1 [Naproxen, naproxen, reference compound] | – | – | – | – | – | – | – | – | – | – | – | – | – | – | – | – | – | – | – | – | Average number of lesions per animal ([4]; 5 mg/kg): 0; Average number of lesions per animal ([4]; 7.5 mg/kg): 0.9; Gastric ulcerogenicity (in words) ([4]; rats): considerable gastrolesive power; inhibition in vivo at 30 mg/kg ([5]; Rattus norvegicus, po, 4 h, 30 mg/kg per os, female rats, read-out: % inhibition of the edema after 4 hours): 21%; Reduction of the pyresis at hour 4 ([8]; 30 mg/g (so in the source) per os): 1.12 °C; inhibition in vivo at 30 mg/kg ([10]; Mus musculus, 30 mg/kg oral, 2 h before phenylquinone, 5-15 min, female mice): 33%
CN1c2c(C(=O)NCCCN3CCOCC3)nn(-c3ccccc3)c2-c2ccccc2S1(=O)=O [Compound I-3] | 4 | 10 | 0 | > 20 | 100 | 0.4 | 0.2 | 0.7 | 0.3 | 9% | 15% | 1080 mg/kg | 0.7 | 0.9 | 0.77 °C | 1.0 | 1.2 | 1.08 °C | 2200 mg/kg | 1.0 | LD 50, relative ratio to naproxen ([1]; per os): 1.8; LD 50, relative ratio to piroxicam ([1]; per os): 6.1; mortality at 120 h ([3]; 200 mg/kg/day): 0%; LD 50, relative ratio to piroxicam ([6]; in vivo): 4.0; Analgesic relative potency to piroxicam ([10]; 50 mg/kg oral): 0.7; Analgesic relative potency to naproxen ([10]; 100 mg/kg oral): 1.8; Analgesic relative potency to piroxicam ([10]; 100 mg/kg oral): 1.3; inhibition in vivo at 50 mg/kg [10, 16]: 33%; inhibition in vivo at 100 mg/kg [10, 17]: 60%
CCN(CC)CCNC(=O)c1nn(-c2cccc(F)c2)c2c1N(C)S(=O)(=O)c1ccccc1-2 [Compound I-20] | 7 | 17 | 0 | > 20 | 100 | 0.7 | 0.3 | 1.0 | 0.5 | 15% | 21% | 2220 mg/kg | 0.4 | 0.5 | 0.45 °C | 0.7 | 0.8 | 0.75 °C | 1600 mg/kg | 1.3 | LD 50, relative ratio to naproxen ([1]; per os): 1.3; LD 50, relative ratio to piroxicam ([1]; per os): 4.4; mortality at 120 h ([3]; 350 mg/kg/day): 0%; LD 50, relative ratio to naproxen ([6]; per os): 4.1; LD 50, relative ratio to piroxicam ([6]; per os): 8.2; Analgesic relative potency to piroxicam ([10]; 50 mg/kg oral): 1.0; Analgesic relative potency to naproxen ([10]; 100 mg/kg oral): 2.2; Analgesic relative potency to piroxicam ([10]; 100 mg/kg oral): 1.6; inhibition in vivo at 50 mg/kg [10, 16]: 44%; inhibition in vivo at 100 mg/kg [10, 17]: 72%
